Data published in US10399988B2, “4-aminopyrazolo[3,4-d]pyrimidinylazabicyclo derivatives and pharmaceutical composition comprising the same” (Daewoong Pharmaceutical Co., Ltd., priority 2016, dated 2019).

Target: BTK (Homo sapiens, UniProt Q06187)
Assay: Inhibitory activity against BTK (ADP-Glo + BTK Kinase enzyme system kit)

Chain of BTK (Q06187 whole entry): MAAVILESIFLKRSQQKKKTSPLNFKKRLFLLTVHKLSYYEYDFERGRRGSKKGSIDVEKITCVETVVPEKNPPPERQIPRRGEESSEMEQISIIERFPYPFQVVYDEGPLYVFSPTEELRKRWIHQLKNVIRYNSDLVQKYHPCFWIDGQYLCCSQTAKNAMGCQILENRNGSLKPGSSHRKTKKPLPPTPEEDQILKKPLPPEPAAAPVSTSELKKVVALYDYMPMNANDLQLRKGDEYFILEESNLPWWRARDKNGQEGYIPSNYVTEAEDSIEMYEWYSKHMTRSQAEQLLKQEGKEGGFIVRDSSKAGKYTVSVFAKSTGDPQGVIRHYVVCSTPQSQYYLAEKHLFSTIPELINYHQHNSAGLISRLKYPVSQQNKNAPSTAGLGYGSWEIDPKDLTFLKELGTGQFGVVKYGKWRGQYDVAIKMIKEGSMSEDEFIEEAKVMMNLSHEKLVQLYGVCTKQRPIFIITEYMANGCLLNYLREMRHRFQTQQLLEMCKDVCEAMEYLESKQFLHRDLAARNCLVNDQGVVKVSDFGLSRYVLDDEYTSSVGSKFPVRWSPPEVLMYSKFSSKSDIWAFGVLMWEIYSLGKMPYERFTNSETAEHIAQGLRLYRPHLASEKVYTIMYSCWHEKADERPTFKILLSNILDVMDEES

| IC50 | Structure (SMILES) |
| --- | --- |
| 72 nM | C=CC(=O)N1CC2CC1C(n1nc(-c3ccc(C(=O)Nc4cccc(CC)c4)cc3)c3c(N)ncnc31)C2 (stereo not shown) [Ex. 46, 4-(1-(2-acryloyl-2-azabicyclo[2.2.1]heptan-6-yl)-4-amino-1H-pyrazolo[3,4-d]pyrimidin-3-yl)-N-(3-ethylphenyl)benzamide] |
| 6.9 nM | C#CC(=O)N1CC2CC1C(n1nc(-c3cccc(C(=O)Nc4ccccc4)c3)c3c(N)ncnc31)C2 (stereo not shown) [Ex. 18, 3-(4-amino-1-(2-propioloyl-2-azabicyclo[2.2.1]heptan-6-yl)-1H-pyrazolo[3,4-d]pyrimidin-3-yl)-N-phenylbenzamide] |
| 63 nM | C=CC(=O)N1CC2CC1C(n1nc(-c3cccc(C(=O)Nc4ccccc4)c3)c3c(N)ncnc31)C2 (stereo not shown) [Ex. 21, 3-(1-(2-acryloyl-2-azabicyclo[2.2.1]heptan-6-yl)-4-amino-1H-pyrazolo[3,4-d]pyrimidin-3-yl)-N-phenylbenzamide] |
| 28.6 nM | C=CC(=O)N1CC2CC1C(n1nc(-c3ccc(NC(=O)c4cccc(N(C)C)c4)cc3)c3c(N)ncnc31)C2 (stereo not shown) [Ex. 50, N-(4-(1-(2-acryloyl-2-azabicyclo[2.2.1]heptan-6-yl)-4-amino-1H-pyrazolo[3,4-d]pyrimidin-3-yl)phenyl)-3-(dimethylamino)benzamide] |
| 8.8 nM | C=CC(=O)N1CC2CC1C(n1nc(-c3ccc(NC(=O)c4ccccc4N(C)C)cc3)c3c(N)ncnc31)C2 (stereo not shown) [Ex. 57, N-(4-(1-(2-acryloyl-2-azabicyclo[2.2.1]heptan-6-yl)-4-amino-1H-pyrazolo[3,4-d]pyrimidin-3-yl)phenyl)-2-(dimethylamino)benzamide] |
| 5.2 nM | C=CC(=O)N1C[C@@H]2C[C@H]1[C@@H](n1nc(-c3ccc(C(=O)Nc4ncccc4C(F)(F)F)cc3)c3c(N)ncnc31)C2 [Ex. 78, 4-(1-((1S,4R,6S)-2-acryloyl-2-azabicyclo[2.2.1]heptan-6-yl)-4-amino-1H-pyrazolo[3,4-d]pyrimidin-3-yl)-N-(3-(trifluoromethyl)pyridin-2-yl)benzamide] |
| 8.2 nM | C=CC(=O)N1CC2CC1C(n1nc(-c3ccc(NC(=O)c4ccccn4)cc3)c3c(N)ncnc31)C2 (stereo not shown) [Ex. 38, N-(4-(1-(2-acryloyl-2-azabicyclo[2.2.1]heptan-6-yl)-4-amino-1H-pyrazolo[3,4-d]pyrimidin-3-yl)phenyl)picolinamide] |
| 78.8 nM | C=CC(=O)N1CC2CC1CC2n1nc(-c2ccc(C(=O)Nc3ccccc3)cc2)c2c(N)ncnc21 (stereo not shown) [Ex. 23, 4-(1-(2-acryloyl-2-azabicyclo[2.2.1]heptan-5-yl)-4-amino-1H-pyrazolo[3,4-d]pyrimidin-3-yl)-N-phenylbenzamide] |
| 10.8 nM | C=CC(=O)N1CC2CC1C(n1nc(-c3ccc(C(=O)Nc4ccccc4)cc3)c3c(N)ncnc31)C2 (stereo not shown) [Ex. 19, 4-(1-(2-acryloyl-2-azabicyclo[2.2.1]heptan-6-yl)-4-amino-1H-pyrazolo[3,4-d]pyrimidin-3-yl)-N-phenylbenzamide] |
| > 1000 nM | CC#CC(=O)N1CC2CC1C(n1nc(-c3cccc(C(=O)Nc4ccccc4)c3)c3c(N)ncnc31)C2 (stereo not shown) [Ex. 22, 3-(4-amino-1-(2-but-2-ynoyl-2-azabicyclo[2.2.1]heptan-6-yl)-1H-pyrazolo[3,4-d]pyrimidin-3-yl)-N-phenylbenzamide] |
| 295 nM | C=CC(=O)N1CC2CC1C(n1nc(-c3cccc(C(=O)Nc4ccc(C(F)(F)F)nc4)c3)c3c(N)ncnc31)C2 (stereo not shown) [Ex. 26, 3-(1-(2-acryloyl-2-azabicyclo[2.2.1]heptan-6-yl)-4-amino-1H-pyrazolo[3,4-d]pyrimidin-3-yl)-N-(6-(trifluoromethyl)pyridin-3-yl)benzamide] |
| 5.9 nM | Nc1ncnc2c1c(-c1ccc(Oc3ccccc3)cc1)nn2C1CC2CC1N(C(=O)/C=C/CBr)C2 (stereo not shown) [Ex. 44, (E)-1-(6-(4-amino-3-(4-phenoxyphenyl)-1H-pyrazolo[3,4-d]pyrimidin-1-yl)-2-azabicyclo[2.2.1]heptan-2-yl)-4-bromobut-2-en-1-one] |
| 8.5 nM | C=CC(=O)N1CC2CC1C(n1nc(-c3ccc(C(=O)Nc4ccccc4N(C)C)cc3)c3c(N)ncnc31)C2 (stereo not shown) [Ex. 55, 4-(1-(2-acryloyl-2-azabicyclo[2.2.1]heptan-6-yl)-4-amino-1H-pyrazolo[3,4-d]pyrimidin-3-yl)-N-(2-(dimethylamino)phenyl)benzamide] |
| 6.7 nM | Nc1ncnc2c1c(-c1ccc(Oc3ccccc3)cc1)nn2C1CC2CC1CN2C(=O)/C=C/CBr (stereo not shown) [Ex. 65, (E)-1-(5-(4-amino-3-(4-phenoxyphenyl)-1H-pyrazolo[3,4-d]pyrimidin-1-yl)-2-azabicyclo[2.2.1]heptan-2-yl)-4-bromobut-2-en-1-one] |
| 6.4 nM | C=CC(=O)N1C[C@@H]2C[C@H]1[C@@H](n1nc(-c3ccc(C(=O)Nc4ncccc4C)cc3)c3c(N)ncnc31)C2 [Ex. 77, 4-(1-((1S,4R,6S)-2-acryloyl-2-azabicyclo[2.2.1]heptan-6-yl)-4-amino-1H-pyrazolo[3,4-d]pyrimidin-3-yl)-N-(3-methylpyridin-2-yl)benzamide] |
| > 1000 nM | C#CC(=O)N1CC2CC1C(n1nc(-c3ccc(-c4ccccc4)cc3)c3c(N)ncnc31)C2 (stereo not shown) [Ex. 30, 1-(6-(4-amino-3-(biphenyl-4-yl)-1H-pyrazolo[3,4-d]pyrimidin-1-yl)-2-azabicyclo[2.2.1]heptan-2-yl)prop-2-yn-1-one] |

| IC50 | Structure (SMILES) |
| --- | --- |
| 5.1 nM | C=CC(=O)N1CC2CC1C(n1nc(-c3ccc(C(=O)Nc4ccccc4)cc3F)c3c(N)ncnc31)C2 (stereo not shown) [Ex. 52, 4-(1-(2-acryloyl-2-azabicyclo[2.2.1]heptan-6-yl)-4-amino-1H-pyrazolo[3,4-d]pyrimidin-3-yl)-3-fluoro-N-phenylbenzamide] |
| 139 nM | C=CC(=O)N1CC2CC1C(n1nc(-c3cccc(C(=O)Nc4ccc(C(C)C)cc4)c3)c3c(N)ncnc31)C2 (stereo not shown) [Ex. 8, 3-(1-(2-acryloyl-2-azabicyclo[2.2.1]heptan-6-yl)-4-amino-1H-pyrazolo[3,4-d]pyrimidin-3-yl)-N-(4-isopropylphenyl)benzamide] |
| 12.5 nM | C#CC(=O)N1CC2CC1C(n1nc(-c3ccc(Nc4ccccc4)cc3)c3c(N)ncnc31)C2 (stereo not shown) [Ex. 31, 1-(6-(4-amino-3-(4-(phenylamino)phenyl)-1H-pyrazolo[3,4-d]pyrimidin-1-yl)-2-azabicyclo[2.2.1]heptan-2-yl)prop-2-yn-1-one] |
| > 100 nM | C=C(C)C(=O)N1C[C@@H]2C[C@@H]1[C@@H](n1nc(-c3ccc(C(=O)Nc4ccccn4)cc3)c3c(N)ncnc31)C2 [Ex. 84, 4-(4-amino-1-((1R,4R,6S)-2-methacryloyl-2-azabicyclo[2.2.1]heptan-6-yl)-1H-pyrazolo[3,4-d]pyrimidin-3-yl)-N-(pyridin-2-yl)benzamide] |
| 1.1 nM | C=CC(=O)N1C[C@@H]2C[C@H]1[C@@H](n1nc(-c3ccc(C(=O)Nc4cc(F)ccn4)cc3F)c3c(N)ncnc31)C2 [Ex. 73, 4-(1-((1S,4R,6S)-2-acryloyl-2-azabicyclo[2.2.1]heptan-6-yl)-4-amino-1H-pyrazolo[3,4-d]pyrimidin-3-yl)-3-fluoro-N-(4-fluoropyridin-2-yl)benzamide] |
| 2.8 nM | C#CC(=O)N1CC2CC1CC2n1nc(-c2ccc(Oc3ccccc3)cc2)c2c(N)ncnc21 (stereo not shown) [Ex. 11, 1-(5-(4-amino-3-(4-phenoxyphenyl)-1H-pyrazolo[3,4-d]pyrimidin-1-yl)-2-azabicyclo[2.2.1]heptan-2-yl)prop-2-yn-1-one] |
| 77.1 nM | C=CC(=O)N1C[C@@H]2C[C@H]1[C@@H](n1nc(-c3ccc(C(=O)NC)cc3F)c3c(N)ncnc31)C2 [Ex. 79, 4-(1-((1S,4R,6S)-2-acryloyl-2-azabicyclo[2.2.1]heptan-6-yl)-4-amino-1H-pyrazolo[3,4-d]pyrimidin-3-yl)-3-fluoro-N-methylbenzamide] |
| > 1000 nM | CC#CC(=O)N1CC2CC1C(n1nc(-c3ccc(C(=O)Nc4ccccc4)cc3)c3c(N)ncnc31)C2 (stereo not shown) [Ex. 20, 4-(4-amino-1-(2-(but-2-ynoyl)-2-azabicyclo[2.2.1]heptan-6-yl)-1H-pyrazolo[3,4-d]pyrimidin-3-yl)-N-phenylbenzamide] |
| 10 nM | CC(C)C=C(C#N)C(=O)N1C[C@H]2CC(n3nc(-c4ccc(C(=O)Nc5ccccn5)cc4)c4c(N)ncnc43)[C@H]1C2 (stereo partly drawn) [Ex. 76, 4-(4-amino-1-((1R,4R)-2-(2-cyano-4-methylpent-2-enoyl)-2-azabicyclo[2.2.1]heptan-6-yl)-1H-pyrazolo[3,4-d]pyrimidin-3-yl)-N-(pyridin-2-yl)benzamide] |
| 5.5 nM | C=CC(=O)N1CC2CC1C(n1nc(-c3ccc(Oc4cccc(C)c4)cc3)c3c(N)ncnc31)C2 (stereo not shown) [Ex. 40, 1-(6-(4-amino-3-(4-(m-tolyloxy)phenyl)-1H-pyrazolo[3,4-d]pyrimidin-1-yl)-2-azabicyclo[2.2.1]heptan-2-yl)prop-2-en-1-one] |
| 5.3 nM | Nc1ncnc2c1c(-c1ccc(Oc3ccccc3)cc1)nn2C1CC2CC1N(C(=O)/C=C/CN1CCOCC1)C2 (stereo not shown) [Ex. 58, (E)-1-(6-(4-amino-3-(4-phenoxyphenyl)-1H-pyrazolo[3,4-d]pyrimidin-1-yl)-2-azabicyclo[2.2.1]heptan-2-yl)-4-morpholinobut-2-en-1-one] |
| 11.4 nM | CN(C)C/C=C/C(=O)N1CC2CC1C(n1nc(-c3ccc(Oc4ccccc4)cc3)c3c(N)ncnc31)C2 (stereo not shown) [Ex. 45, (E)-1-(6-(4-amino-3-(4-phenoxyphenyl)-1H-pyrazolo[3,4-d]pyrimidin-1-yl)-2-azabicyclo[2.2.1]heptan-2-yl)-4-(dimethylamino)but-2-en-1-one] |
| 560 nM | C=CC(=O)N1CC2CC1CC2n1nc(-c2cccc(C(=O)Nc3ccccc3)c2)c2c(N)ncnc21 (stereo not shown) [Ex. 24, 3-(1-(2-acryloyl-2-azabicyclo[2.2.1]heptan-5-yl)-4-amino-1H-pyrazolo[3,4-d]pyrimidin-3-yl)-N-phenylbenzamide] |
| 22.7 nM | C#CC(=O)N1CC2CC1C(n1nc(-c3ccc(C(=O)Nc4cc(C(F)(F)F)ccn4)cc3)c3c(N)ncnc31)C2 (stereo not shown) [Ex. 6, 4-(4-amino-1-(2-propioloyl-2-azabicyclo[2.2.1]heptan-6-yl)-1H-pyrazolo[3,4-d]pyrimidin-3-yl)-N-(4-(trifluoromethyl)pyridin-2-yl)benzamide] |
| 72.3 nM | C=CC(=O)N1CC2CC1CC2n1nc(-c2cccc(Oc3ccccc3)c2)c2c(N)ncnc21 (stereo not shown) [Ex. 25, 1-(5-(4-amino-3-(3-phenoxyphenyl)-1H-pyrazolo[3,4-d]pyrimidin-1-yl)-2-azabicyclo[2.2.1]heptan-2-yl)prop-2-en-1-one] |
